In US10383880B2 (Reset Therapeutics, Inc., priority 2012, dated 2019):

system: Per2-dLuc U2OS reporter cells; assay: Per2 assay for evaluating the potency of test compounds (high-throughput circadian assay); format: cell-based; settings: Homo sapiens, U2OS, stable U2OS reporter cells harboring Per2-dLuc; luminescence monitored over 4-5 days at 35° C.
Description: Compounds were screened by using a high-throughput circadian assay system as previously described in Zhang, E. E. et al. Cell, 2009, 139, 199-210. In brief, stable U2OS reporter cells harboring Per2-dLuc were plated at a density of 8,000 cells/well in Corning 96-well, solid white, flat bottom, TC-treated microplates (Corning®), and incubated for 24 hours at 37° C. in the presence of 5% CO2. The cells were then synchronized by serum shock by media exchange to a minimal explant media (10 mM HEPES (pH 7.0), 2% B27, 1×PSG (Invitrogen®), and 1.0 mM beetle luciferin (Promega®)) followed by the addition of the compounds of formula I dissolved in dimethylsulfoxide (0.5% final dimethylsulfoxide concentration). Gene expression was monitored by measuring luminescence (TecanR M200) over 4-5 days at 35° C. The period, amplitude, and phase of the associated circadian rhythms were determined using Multicycle™ software (Actimetrics, Inc). EC50 values of the compounds of formula I were calculated using Graphpad™ (Prism®).

Structure (SMILES)	EC50
CS(=O)(=O)N(CC(O)Cn1c2ccccc2c2ccccc21)C1CC2CCC1O2 (single isomer, unassigned) [Compound 140A, N-(3-(9H-Carbazol-9-yl)-2-hydroxypropyl)-N-(7-oxabicyclo[2.2.1]heptan-2-yl)methanesulfonamide]	503 nM
CS(=O)(=O)N(Cc1ccco1)CC(O)Cn1c2ccc(F)cc2c2c(F)cccc21 (centres unmarked) [Compound 109, N-(3-(3,5-Difluoro-9H-carbazol-9-yl)-2-hydroxypropyl)-N-(furan-2-ylmethyl)methanesulfonamide]	7420 nM
CS(=O)(=O)N(CC(O)Cn1c2ccccc2c2ccccc21)C1CCCC1 (centres unmarked) [Compound 58, N-(3-(9H-Carbazol-9-yl)-2-hydroxypropyl)-N-cyclopentylmethanesulfonamide]	150 nM
COC1CN(CC(O)Cn2c3ccc(F)cc3c3cc(F)ccc32)S(=O)(=O)C1 (centres unmarked) [Compound 181, 2-(3-(3,6-Difluoro-9H-carbazol-9-yl)-2-hydroxypropyl)-4-methoxyisothiazolidine-1,1-dioxide]	174 nM
CC(O)(CNS(C)(=O)=O)Cn1c2ccc(F)cc2c2cc(F)ccc21 (centres unmarked) [Compound 152, N-(3-(3,6-Difluoro-9H-carbazol-9-yl)-2-hydroxy-2-methylpropyl)methanesulfonamide]	1910 nM
COCc1ccc(N(CC(O)Cn2c3ccc(F)cc3c3cc(F)ccc32)S(C)(=O)=O)cc1 (centres unmarked) [Compound 209, N-(3-(3,6-Difluoro-9H-carbazol-9-yl)-2-hydroxypropyl)-N-(4-(methoxymethyl)phenyl)methanesulfonamide]	4810 nM
O=S1(=O)CCCCN1CC(O)Cn1c2cccc(F)c2c2c(F)cccc21 (centres unmarked) [Compound 105, N-(3-(4,5-Difluoro-9H-carbazol-9-yl)-2-hydroxypropyl)-1,2-thiazinane 1,1-dioxide]	5200 nM
O=S1(=O)CCCCN1CC(O)Cn1c2ccc(F)cc2c2ccc(F)cc21 (centres unmarked) [Compound 100, N-(3-(2,6-Diflouoro-9H-carbazol-9-yl)-2-hydroxypropyl)-1,2-thiazinane 1,1-dioxide]	32 nM
CS(=O)(=O)N(CC(O)Cn1c2ccc(F)cc2c2cc(F)ccc21)c1ccccc1 (centres unmarked) [Compound 199, N-(3-(3,6-Difluoro-9H-carbazol-9-yl)-2-hydroxypropyl)-N-phenylmethanesulfonamide]	544 nM
CCOc1ccc(N(CC(O)Cn2c3ccc(F)cc3c3cc(F)ccc32)S(C)(=O)=O)cc1 (centres unmarked) [Compound 202, N-(3-(3,6-Difluoro-9H-carbazol-9-yl)-2-hydroxypropyl)-N-(4-ethoxyphenyl)methanesulfonamide]	2100 nM
O=S1(=O)C(F)CCN1CC(O)Cn1c2ccc(F)cc2c2cc(F)ccc21 (centres unmarked) [Compound 183, 2-(3-(3,6-Difluoro-9H-carbazol-9-yl)-2-hydroxypropyl)-5-fluoroisothiazolidine-1,1-dioxide]	53 nM
CC(O)(CN1CCCS1(=O)=O)Cn1c2ccc(F)cc2c2cc(F)ccc21 (centres unmarked) [Compound 115, 2-(3-(3,6-Difluoro-9H-carbazol-9-yl)-2-hydroxy-2-methylpropyl)-isothiazolidine-1,1-dioxide]	232 nM
COC(=O)N1CCCC(N(CC(O)Cn2c3ccccc3c3ccccc32)S(C)(=O)=O)C1 (centres unmarked) [Compound 130, Methyl 3-(N-(3-(9H-carbazol-9-yl)-2-hydroxypropyl)methylsulfonamido)piperidine-1-carboxylate]	636 nM
CS(=O)(=O)N(CC(O)Cn1c2ccc(F)cc2c2cc(F)ccc21)c1ccc(C2CC2)cc1 (centres unmarked) [Compound 207, N-(4-Cyclopropylphenyl)-N-(3-(3,6-difluoro-9H-carbazol-9-yl)-2-hydroxypropyl)methanesulfonamide]	2950 nM
CCCc1ccc(N(CC(O)Cn2c3ccc(F)cc3c3cc(F)ccc32)S(C)(=O)=O)cc1 (centres unmarked) [Compound 200, N-(3-(3,6-Difluoro-9H-carbazol-9-yl)-2-hydroxypropyl)-N-(4-propylphenyl)methanesulfonamide]	1890 nM
Cn1ccc2ccc(N(CC(O)Cn3c4ccccc4c4ccccc43)S(C)(=O)=O)cc21 (centres unmarked) [Compound 66, N-(3-(9H-Carbazol-9-yl)-2-hydroxypropyl)-N-(1-methyl-1H-indol-6-yl)methanesulfonamide]	9900 nM
CCN1CCN(CC(C)(O)Cn2c3ccc(F)cc3c3cc(F)ccc32)S1(=O)=O (centres unmarked) [Compound 219]	1580 nM
CS(=O)(=O)N(CC(O)Cn1c2ccc(F)cc2c2cc(F)ccc21)C1CCC1 (centres unmarked) [Compound 119, N-Cyclobutyl-N-(3-(3,6-difluoro-9H-carbazol-9-yl)-2-hydroxypropyl)methanesulfonamide]	37 nM
CC(C)N(CC(O)Cn1c2cc(F)ccc2c2ccc(F)cc21)S(C)(=O)=O (centres unmarked) [Compound 159, N-(3-(2,7-Difluoro-9H-carbazol-9-yl)-2-hydroxypropyl)-N-isopropylmethanesulfonamide]	505 nM

Structure (SMILES)	EC50
CC(C)CN(CC(O)Cn1c2ccccc2c2ccccc21)S(C)(=O)=O (centres unmarked) [Compound 49, N-(3-(9H-Carbazol-9-yl)-2-hydroxypropyl)-N-isobutylmethanesulfonamide]	100 nM
O=S(=O)(CCCF)N(Cc1ccco1)CC(O)Cn1c2ccccc2c2ccccc21 (centres unmarked) [Compound 10, N-(3-(9H-Carbazol-9-yl)-2-hydroxypropyl)-3-fluoro-N-(furan-2-ylmethyl)propane-1-sulfonamide]	1130 nM
CC1CCCCC1N(CC(O)Cn1c2ccccc2c2ccccc21)S(C)(=O)=O (single isomer, unassigned) [Compound 127, N-(3-(9H-Carbazol-9-yl)-2-hydroxypropyl)-N-(2-methylcyclohexyl)methanesulfonamide]	4010 nM
CS(=O)(=O)N(CC(O)Cn1c2ccc(F)cc2c2ccc(F)cc21)C1CCC1 (centres unmarked) [Compound 166, N-Cyclobutyl-N-(3-(2,6-difluoro-9H-carbazol-9-yl)-2-hydroxypropyl)methanesulfonamide]	147 nM
CS(=O)(=O)N(CC(O)Cn1c2ccccc2c2ccccc21)C1CCC1 (centres unmarked) [Compound 57, N-(3-(9H-Carbazol-9-yl)-2-hydroxypropyl)-N-cyclobutylmethanesulfonamide]	35 nM
CC(CN(CC(O)Cn1c2ccccc2c2ccccc21)S(C)(=O)=O)c1ccccc1 (centres unmarked) [Compound 70, N-(3-(9H-Carbazol-9-yl)-2-hydroxypropyl)-N-(2-phenylpropyl)methanesulfonamide]	8970 nM
CS(=O)(=O)N(CC(O)Cn1c2ccccc2c2ccccc21)c1ccccc1Cl (centres unmarked) [Compound 77, N-(3-(9H-Carbazol-9-yl)-2-hydroxypropyl)-N-(2-chlorophenyl)methanesulfonamide]	750 nM
O=S1(=O)CCCN1CC(O)Cn1c2ccc(F)cc2c2cc(F)ccc21 (centres unmarked) [Compound 87, N-(3-(3,6-Difluoro-9H-carbazol-9-yl)-2-hydroxypropyl)-isothiazolidine-1,1-dioxide]	20 nM
CC(C)N1CCCN(CC(C)(O)Cn2c3ccc(F)cc3c3cc(F)ccc32)S1(=O)=O (centres unmarked) [Compound 218, 2-(3-(3,6-Difluoro-9H-carbazol-9-yl)-2-hydroxy-2-methylpropyl)-6-isopropyl-1,2,6-thiadiazinane-1,1-dioxide]	9780 nM
CCN1CCN(CC(O)Cn2c3ccc(F)cc3c3cc(F)ccc32)S1(=O)=O (centres unmarked) [Compound 216]	150 nM
CS(=O)(=O)N(CC(O)Cn1c2ccccc2c2ccccc21)C1CC1 (centres unmarked) [Compound 56, N-(3-(9H-Carbazol-9-yl)-2-hydroxypropyl)-N-cyclopropylmethanesulfonamide]	128 nM
CC(O)(CN1CCCN(C2CCCC2)S1(=O)=O)Cn1c2ccc(F)cc2c2cc(F)ccc21 (centres unmarked) [Compound 221, 2-(3-(3,6-Difluoro-9H-carbazol-9-yl)-2-hydroxy-2-methylpropyl)-6-cyclopentyl-1,2,6-thiadiazinane-1,1-dioxide]	5520 nM
CN(CC(O)Cn1c2ccc(F)cc2c2ccc(F)cc21)S(C)(=O)=O (centres unmarked) [Compound 103, N-(3-(2,6-Difluoro-9H-carbazol-9-yl)-2-hydroxypropyl)-N-methylmethanesulfonamide]	2210 nM
CS(=O)(=O)NCC(O)Cn1c2cc(F)ccc2c2ccc(F)cc21 (centres unmarked) [Compound 162, N-(3-(2,7-Difluoro-9H-carbazol-9-yl)-2-hydroxypropyl)methanesulfonamide]	1990 nM
CS(=O)(=O)N(Cc1ccco1)CC(O)Cn1c2ccc(F)cc2c2ccc(F)cc21 (centres unmarked) [Compound 102, N-(3-(2,6-Difluoro-9H-carbazol-9-yl)-2-hydroxypropyl)-N-(furan-2-ylmethyl)methanesulfonamide]	3250 nM
CC1CCN(CC(C)(O)Cn2c3ccc(F)cc3c3cc(F)ccc32)S1(=O)=O (centres unmarked) [Compound 179, 2-(3-(3,6-Difluoro-9H-carbazol-9-yl)-2-hydroxy-2-methylpropyl)-5-methylisothiazolidine-1,1-dioxide]	1200 nM
CS(=O)(=O)N(Cc1cccc(F)c1)CC(O)Cn1c2ccccc2c2ccccc21 (centres unmarked) [Compound 67, N-(3-(9H-Carbazol-9-yl)-2-hydroxypropyl)-N-(3-fluorobenzyl)methanesulfonamide]	3140 nM
CS(=O)(=O)N(CCc1ccccc1)CC(O)Cn1c2ccccc2c2ccccc21 (centres unmarked) [Compound 54, N-(3-(9H-Carbazol-9-yl)-2-hydroxypropyl)-N-phenethylmethanesulfonamide]	824 nM

same assay, conditions: stable U2OS reporter cells harboring Per2-dLuc; luminescence monitored over 4-5 days at 35° C.

Structure (SMILES)	EC50
CS(=O)(=O)N(CC(O)Cn1c2ccccc2c2ccccc21)C1CC2CCC1O2 (single isomer, unassigned) [Compound 140B, N-(3-(9H-Carbazol-9-yl)-2-hydroxypropyl)-N-(7-oxabicyclo[2.2.1]heptan-2-yl)methanesulfonamide]	823 nM
